The target of experiment [1] is T1, COX-2 (purified enzyme from ewe placenta) (Ovis aries, UniProt P79208).
T1 construct: purified enzyme from ewe placenta; from tissue; host or cells: ewe placenta
T1 sequence (P79208 17-603): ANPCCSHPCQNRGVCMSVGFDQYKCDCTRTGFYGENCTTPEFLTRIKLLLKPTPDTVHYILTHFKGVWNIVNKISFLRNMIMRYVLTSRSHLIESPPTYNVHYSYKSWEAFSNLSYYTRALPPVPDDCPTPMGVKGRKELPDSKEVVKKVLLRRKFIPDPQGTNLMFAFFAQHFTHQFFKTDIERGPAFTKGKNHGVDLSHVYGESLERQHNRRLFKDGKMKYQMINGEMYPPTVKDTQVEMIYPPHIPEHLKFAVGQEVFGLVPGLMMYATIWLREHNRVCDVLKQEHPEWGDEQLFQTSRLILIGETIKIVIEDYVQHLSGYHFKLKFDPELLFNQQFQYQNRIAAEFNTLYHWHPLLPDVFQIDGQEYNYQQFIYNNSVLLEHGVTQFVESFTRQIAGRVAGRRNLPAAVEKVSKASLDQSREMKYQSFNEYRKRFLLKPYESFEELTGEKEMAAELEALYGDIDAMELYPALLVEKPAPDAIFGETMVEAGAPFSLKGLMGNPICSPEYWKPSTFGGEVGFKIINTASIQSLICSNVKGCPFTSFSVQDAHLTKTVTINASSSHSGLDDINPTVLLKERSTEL
Kind of experiment: Inhibition of COX-2 enzymatic activity (PGE2 determined by EIA). In kind it is biochemical. The settings on record: arachidonic acid 4 μM, mean ± standard deviation, 4 determinations; for inhibition at 10 µM: 10^-5 M. The procedure: (§1) The molecule studied is preincubated for 10 minutes at 25° C. with 2 U of COX-1 (purified enzyme from ram seminal vesicles) or 1 U of COX-2 (purified enzyme from ewe placenta). Arachidonic acid (6 μM for COX-1, 4 μM for COX-2) is added to the reaction medium and incubation is carried out for 5 minutes at 25° C. When incubation has ended, the enzymatic reaction is stopped by the addition of 1N HCl and the PGE2 produced is determined by EIA. The results are expressed as the percentage inhibition of the COX-1 and COX-2 enzymatic activities and correspond to mean (±) standard deviations from the average of 4 determinations.

Experiment [2] concerns the target T2, COX-1 (purified enzyme from ram seminal vesicles) (Ovis aries, UniProt P05979).
T2 construct: purified enzyme from ram seminal vesicles; from tissue; host or cells: ram seminal vesicles
T2 sequence (P05979 25-600): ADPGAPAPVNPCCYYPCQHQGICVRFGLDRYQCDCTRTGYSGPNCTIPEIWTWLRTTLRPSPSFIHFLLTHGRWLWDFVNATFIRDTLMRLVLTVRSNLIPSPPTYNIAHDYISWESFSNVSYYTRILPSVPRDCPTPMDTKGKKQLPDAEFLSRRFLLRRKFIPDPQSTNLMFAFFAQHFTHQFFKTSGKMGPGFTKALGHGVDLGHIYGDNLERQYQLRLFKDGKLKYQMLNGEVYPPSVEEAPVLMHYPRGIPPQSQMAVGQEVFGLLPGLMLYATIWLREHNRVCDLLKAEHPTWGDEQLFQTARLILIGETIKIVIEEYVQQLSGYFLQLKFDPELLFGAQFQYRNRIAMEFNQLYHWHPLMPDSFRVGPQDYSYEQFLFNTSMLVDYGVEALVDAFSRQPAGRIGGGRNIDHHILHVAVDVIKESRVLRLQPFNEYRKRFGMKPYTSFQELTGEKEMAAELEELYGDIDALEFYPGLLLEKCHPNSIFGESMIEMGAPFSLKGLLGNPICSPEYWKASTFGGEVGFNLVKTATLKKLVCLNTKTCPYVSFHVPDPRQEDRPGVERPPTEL
Kind of experiment: Inhibition of COX-1 enzymatic activity (PGE2 determined by EIA). As to conditions: arachidonic acid 6 μM, mean ± standard deviation, 4 determinations; for inhibition at 10 µM: 10^-5 M; for inhibition at 0.1 µM: 10^-7 M. In kind it is biochemical. The protocol: as §1

For orientation: inhibition means the drop in the measured response relative to a control, in per cent. In turn, `CS(=O)(=O)c1ccc(-c2cc3ccccc3n2-c2ccc(Cl)cc2)cc1` [Example 19, 1-(4-Chlorophenyl)-2-[4-(methylsulfonyl)phenyl]indole] returned an inhibition at 10 µM in experiment [1] of 95%.
On to `Cc1ccc(-n2c(-c3ccc(S(C)(=O)=O)cc3)cc3ccccc32)cc1` [Example 17, 1-(4-Methylphenyl)-2-[4-(methylsulfonyl)phenyl]indole], for which the inhibition at 10 µM came to 89 ± 2% in experiment [1] and 29 ± 5% in experiment [2]. Besides, at 0.1 µM the inhibition in experiment [2] was 2 ± 2%.
The matching figures for `CS(=O)(=O)c1ccc(-c2cc3ccccc3n2-c2ccccc2)cc1` [Example 18, 1-Phenyl-2-[4-(methylsulfonyl)phenyl]indole]: 88 ± 2%, 23 ± 6% and 2 ± 2%.
`CS(=O)(=O)c1ccc(-c2cc3ccccc3n2-c2ccc(F)cc2)cc1` [Example 16, 1-(4-Fluorophenyl)-2-[4-(methylsulfonyl)phenyl]indole]: the figures for the inhibition at 10 µM in experiment [1] and in experiment [2] were 83 ± 2% and 36 ± 14%, respectively. For the same compound, the results for the inhibition at 0.1 µM in experiment [1] (10^-7 M) and in experiment [2] were 29 ± 2% and 4 ± 4%, respectively.

Source of the values: US5723485A, “1,2-Diarylindole derivatives, processes for their preparation and their uses in therapeutics” (Laboratories UPSA, priority 1996, dated 1998).
